IC50 and DC50 data for 24 compounds are collected here from patent publication US20250115582A1, “MOLECULAR GLUE DEGRADERS AND METHODS OF USING THE SAME” (Monte Rosa Therapeutics, Inc., priority 2022, published 2025).

The target in one assay is CRBN/DDB1 (Homo sapiens, UniProt Q96SW2). As to the kind of experiment: HTRF binding assay (thalidomide probe displacement from CRBN/DDB1). The note with it: CRBN/DDB1 2.5 nM, Cy5-Thalidomide 100 nM, 30 min; geometric mean; read-out: HTRF_Thali_Disp_DR—geo_IC50. The text has this: Binding of test compounds to CRBN/DDB1 was monitored in an HTRF assay using 1-[5-({2-[2-(2-{[2-(2,6-dioxopiperidin-3-yl)-1,3-dioxo-2,3-dihydro-1H-isoindol-4-yl]oxy}acetamido)ethoxy]ethyl}carbamoyl)pentyl]-3,3-dimethyl-2-[(1E,3E)-5-[(2E)-1,3,3-trimethyl-5-sulfo-2,3-dihydro-1H-indol-2-ylidene]penta-1,3-dien-1-yl]-3H-indol-1-ium-5-sulfonate as a fluorescent probe. In this assay, compounds displace the fluorescently labeled thalidomide-based probe bound to CRBN and fluorescence is monitored with increasing compound concentration. Assays were conducted in Greiner white 384 well HiBase plates (Cat. No 784075-25) in 10 μL total volume. A one pot detection solution of CRBN/DDB1 (2.5 nM), anti-His Terbium Cryptate Gold (1×, PerkinElmer Cat. #: 61HI2TLB), and Cy5-Thalidomide (100 nM, Tenova Cat.: T52461) was prepared in 20 mM HEPES, 20 mM NaCl, 0.2 mM TCEP, 0.2 mM EDTA, and 0.005% Tween20 was dispensed to each assay plate. Test compounds were stored in dry, ambient temperatures at 10 mM. A 10-point, 1:3 dilution series was prepared from 10 mM stock concentrations in Echo-compatible LDV plates. 10 nL of each compound dilution series was dispensed into assays wells using an Echo 650 (Labcyte inc. USA). 10 nL of 10 mM lenalidomide (Selleckchem Cat no. S1029) was transferred into the active-control wells for the assay and 10 nL of DMSO was transferred into the negative control wells. The assay was then allowed to incubate for 30 min at ambient temperature after transferring the test compounds. Plate measurements were taken on a Pherastar FSX (BMG Labtech, Germany) using the HTRF Red filter (Ex. 337 nm, eml: 620 nm, em2: 665 nm) (Flashes: 50, Integration time: 60-400 μs, Z-height: 10 mm, Ratio-multiplier: 10,000). Analysis, HTRF ratio and IC50 values were derived using KNIME analytics (KNIME Zurich) transformation and fitting within Collaborative Drug Discovery (Collaborative Drug Discovery USA) using a 4-parameter logistic fit. HTRF ratio calculation was performed using the following formula: […]
where em665nm represents the measured emission at 665 nm upon excitation at 337 nm and em620nm the measured emission at 620 nm upon excitation at 337 nm. The 4 parameter logistic fitting model was performed using the following formula: […]
where Y represents the HTRF ratio response (as defined previously), X the compound concentration in μM, Ymin the minimum response plateau, Ymax the maximum response plateau, IC50 the concentration of agonist that gives a response half way between Ymin and Ymax and HillSlope the steepness of the family of curves. No fitting model constraints was applied on Ymin, or Ymax whilst IC50>0 and −0.5>HillSlope>−3
Ki values were derived from the geometric mean of the IC50 values using the Cheng-Prusoff transformation:
where [L] represents the concentration of fluorescent probe in μM, Kd the affinity (binding constant) of the fluorescent probe in units of μM and IC50 the concentration of agonist that gives a response halfway between Ymin and Ymax (as described in 1.2.1)
Analysis and IC50 values were derived using KNIME analytics (KNIME, Zurich) transformation and fitting within Collaborative Drug Discovery (Collaborative Drug Discovery, USA) as described in 1.2.1. Ki values were derived from the geometric mean of the IC50 values using the Cheng-Prusoff transformation as described in 2.2.2. Data was visualized in GraphPad Prism 8.1.2 (GraphPad, USA) and reported as mean and standard deviation. Microsoft Office Excel 2012 (Redmond, WA) was used for calculation of mean and standard deviation.
IC50 data are reported in Table 3 for compounds in Table 1. In Table 3 below, According to the code, A represents a IC50 value of ≤0.1 μM, B represents a IC50 value≥0.1 μM and ≤1 μM, C represents an IC50 value>1 μM.

The target of a further assay is T1, CK1α (Homo sapiens, UniProt P48729+Q96SW2).
T1 construct: HEK293 clonal line with CRISPR KI HiBiT tag on CSNK1A1; host or cells: HEK293 clonal line, CRISPR HiBiT knock-in at CSNK1A1, stably expressing LgBiT
As to the kind of experiment: CK1α NanoBiT assay (HiBiT-tagged CSNK1A1 in HEK293 clonal line). It is filed as cell-based. As to conditions: HEK293 HiBiT-CSNK1A1/LgBiT cells, 24 h incubation, luminescence. On the procedure:
HEK293 clonal line with CRISPR KI HiBiT tag on CSNK1A1 and stably expressing LgBiT protein was obtained from Promega (Madison, WI). Cells were plated at 5000 cells per well using Multiflo (BioTek) in 384-well white solid bottom plates (Corning, 3570BC) in […] volume in DMEM media (DMEM, high glucose, HEPES, no phenol red (ThermoFisher Scientific, 21063029)) containing 10% FBS (Corning, 35-075-CV), 1% Penicillin/Streptomycin ((ThermoFisher Scientific, 15140-122), and 0.2% Endurazine (Nano-Glo Endurazine Live Cell Substrate (Promega, N2571)). Cells were incubated for 16 hours at 37C, 5% CO2. Depending on experiment 25 or 75 nL of a compound at 10 mM were added into the plate using an Echo®650 liquid handler (Labcyte) to achieve final concentration of […] in wells. Cells were incubated at 37° C., 5% CO2 for 24 hours followed by signal was read on Pherastar FSX using “LUM plus” optic module.
Data analysis was performed using Scinamic (Scinamic, Cambridge, MA).
Luminescence response (R) was calculated by the formula: response=100*(S−N)/(P−N), where S is the signal of the well, N and P the mean negative and positive control values, respectively, of the same plate. The luminescence response was then fitted in Scinamic using a 3-parameter agonist logistic fit (hillslope=1, EC50>0, top/bottom unconstrained).
DC50 data are reported in Table 2 for compounds in Table 1. In Table 2 below, According to the code, A represents a DC50 value of ≤0.1 μM, B represents a DC50 value>0.1 μM and ≤1 μM, C represents an DC50 value>1 μM.

T1 sequence (P48729 whole entry): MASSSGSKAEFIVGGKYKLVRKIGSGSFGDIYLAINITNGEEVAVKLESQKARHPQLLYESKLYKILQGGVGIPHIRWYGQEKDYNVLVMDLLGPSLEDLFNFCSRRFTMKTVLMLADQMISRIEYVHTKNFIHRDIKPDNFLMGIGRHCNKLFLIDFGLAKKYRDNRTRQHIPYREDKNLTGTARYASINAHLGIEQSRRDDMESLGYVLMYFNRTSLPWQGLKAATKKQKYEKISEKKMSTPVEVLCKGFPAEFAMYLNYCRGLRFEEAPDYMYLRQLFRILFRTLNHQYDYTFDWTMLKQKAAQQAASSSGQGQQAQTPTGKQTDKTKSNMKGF
T1 sequence (Q96SW2 whole entry): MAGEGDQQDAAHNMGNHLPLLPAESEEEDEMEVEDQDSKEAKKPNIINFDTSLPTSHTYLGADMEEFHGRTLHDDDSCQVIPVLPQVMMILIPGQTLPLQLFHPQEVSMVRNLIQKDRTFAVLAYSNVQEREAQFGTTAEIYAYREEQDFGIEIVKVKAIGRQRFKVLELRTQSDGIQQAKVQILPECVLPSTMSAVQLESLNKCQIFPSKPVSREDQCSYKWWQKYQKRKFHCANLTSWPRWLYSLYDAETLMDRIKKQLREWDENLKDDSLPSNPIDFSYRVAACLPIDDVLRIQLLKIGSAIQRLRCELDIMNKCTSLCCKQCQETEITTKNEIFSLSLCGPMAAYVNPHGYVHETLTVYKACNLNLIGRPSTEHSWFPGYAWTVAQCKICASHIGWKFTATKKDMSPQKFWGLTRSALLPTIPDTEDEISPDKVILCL
T1 sequence (Q16531 2-1140 partner limits assumed): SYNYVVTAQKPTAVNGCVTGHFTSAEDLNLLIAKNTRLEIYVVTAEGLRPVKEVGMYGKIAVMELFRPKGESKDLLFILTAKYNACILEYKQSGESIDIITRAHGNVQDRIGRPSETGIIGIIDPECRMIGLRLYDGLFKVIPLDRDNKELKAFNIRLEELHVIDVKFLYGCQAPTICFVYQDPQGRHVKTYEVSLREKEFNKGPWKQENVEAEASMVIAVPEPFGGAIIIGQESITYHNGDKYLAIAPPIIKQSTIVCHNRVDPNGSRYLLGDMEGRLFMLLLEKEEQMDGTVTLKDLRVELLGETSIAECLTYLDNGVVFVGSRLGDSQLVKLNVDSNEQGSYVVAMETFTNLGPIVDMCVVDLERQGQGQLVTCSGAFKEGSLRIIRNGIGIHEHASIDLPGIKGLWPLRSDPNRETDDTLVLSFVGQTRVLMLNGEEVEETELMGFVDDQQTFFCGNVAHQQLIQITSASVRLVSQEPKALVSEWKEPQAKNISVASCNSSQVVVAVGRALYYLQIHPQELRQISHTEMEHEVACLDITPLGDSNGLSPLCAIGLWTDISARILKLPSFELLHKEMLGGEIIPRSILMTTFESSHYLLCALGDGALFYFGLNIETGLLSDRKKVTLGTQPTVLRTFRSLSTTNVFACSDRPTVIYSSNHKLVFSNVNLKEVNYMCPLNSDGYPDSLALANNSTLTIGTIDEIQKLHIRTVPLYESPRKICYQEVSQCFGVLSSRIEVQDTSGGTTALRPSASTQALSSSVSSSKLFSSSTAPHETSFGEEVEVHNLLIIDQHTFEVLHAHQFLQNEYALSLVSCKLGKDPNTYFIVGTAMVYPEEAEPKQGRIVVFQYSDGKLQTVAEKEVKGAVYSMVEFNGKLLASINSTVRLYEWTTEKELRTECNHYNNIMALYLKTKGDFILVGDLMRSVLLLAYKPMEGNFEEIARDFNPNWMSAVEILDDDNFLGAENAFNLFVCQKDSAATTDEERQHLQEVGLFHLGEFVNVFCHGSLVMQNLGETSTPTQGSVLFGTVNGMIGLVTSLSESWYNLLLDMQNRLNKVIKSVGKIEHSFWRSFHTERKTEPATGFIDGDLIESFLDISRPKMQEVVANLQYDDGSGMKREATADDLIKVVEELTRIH
Sequence of CRBN/DDB1 (Q96SW2 whole entry): as the sequence (Q96SW2 whole entry) above
Sequence of CRBN/DDB1 (Q16531 whole entry partner): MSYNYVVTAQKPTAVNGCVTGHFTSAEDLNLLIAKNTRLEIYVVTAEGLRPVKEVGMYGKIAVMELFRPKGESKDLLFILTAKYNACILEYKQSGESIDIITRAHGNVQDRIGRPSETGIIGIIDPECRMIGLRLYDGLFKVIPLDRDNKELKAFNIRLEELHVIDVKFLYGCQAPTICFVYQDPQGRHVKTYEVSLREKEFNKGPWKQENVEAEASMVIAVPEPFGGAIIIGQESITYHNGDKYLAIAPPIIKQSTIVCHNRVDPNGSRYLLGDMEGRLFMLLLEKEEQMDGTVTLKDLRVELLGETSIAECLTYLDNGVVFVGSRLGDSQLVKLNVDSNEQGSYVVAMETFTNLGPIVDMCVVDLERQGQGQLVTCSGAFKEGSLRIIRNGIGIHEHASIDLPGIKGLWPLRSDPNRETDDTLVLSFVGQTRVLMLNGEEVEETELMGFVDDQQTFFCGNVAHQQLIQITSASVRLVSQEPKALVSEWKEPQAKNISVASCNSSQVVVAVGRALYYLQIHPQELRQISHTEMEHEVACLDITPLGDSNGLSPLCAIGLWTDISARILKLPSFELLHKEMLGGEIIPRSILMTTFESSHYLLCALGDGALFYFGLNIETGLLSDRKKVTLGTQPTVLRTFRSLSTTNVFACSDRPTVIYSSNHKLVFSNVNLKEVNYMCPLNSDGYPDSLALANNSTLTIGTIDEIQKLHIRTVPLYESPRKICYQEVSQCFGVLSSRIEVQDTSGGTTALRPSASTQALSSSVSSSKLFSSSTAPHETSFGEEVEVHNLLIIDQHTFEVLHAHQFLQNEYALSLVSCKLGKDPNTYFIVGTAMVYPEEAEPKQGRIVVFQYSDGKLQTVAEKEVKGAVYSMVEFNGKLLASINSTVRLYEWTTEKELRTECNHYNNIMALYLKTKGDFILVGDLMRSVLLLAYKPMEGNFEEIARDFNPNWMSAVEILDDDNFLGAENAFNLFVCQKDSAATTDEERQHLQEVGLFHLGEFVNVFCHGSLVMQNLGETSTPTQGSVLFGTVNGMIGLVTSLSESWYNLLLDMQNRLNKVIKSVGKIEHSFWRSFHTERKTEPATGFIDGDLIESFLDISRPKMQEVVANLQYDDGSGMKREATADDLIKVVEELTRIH

Consider `O=C1CCC(N2Cc3cc(N(CC(F)(F)F)C(=O)c4ccc(Cl)cc4)ccc3C2=O)C(=O)N1` (stereo not drawn) [Compound 112, 4-chloro-N-(2-(2,6-dioxopiperidin-3-yl)-1-oxoisoindolin-5-yl)-N-(2,2,2-trifluoroethyl) benzamide], for which the IC50 on CRBN/DDB1 is 100 to 1000 nM. The same compound registered a DC50 at CK1α of more than 1 µM.
In the same order, the values of `O=C1CCC(N2Cc3cc(NC(=O)c4cnccn4)ccc3C2=O)C(=O)N1` (stereo not drawn) [Compound 115, N-(2-(2,6-dioxopiperidin-3-yl)-1-oxoisoindolin-5-yl)pyrazine-2-carboxamide] are 100 to 1000 nM and more than 1 µM.
In the same order, the values of `Cn1ccnc1C(=O)Nc1ccc2c(c1)CN(C1CCC(=O)NC1=O)C2=O` (stereo not drawn) [Compound 119, N-(2-(2,6-dioxopiperidin-3-yl)-1-oxoisoindolin-5-yl)-1-methyl-1H-imidazole-2-carboxamide] are 100 to 1000 nM and more than 1 µM.
Turning to `Cc1ccc(C(=O)Nc2ccc3c(c2)CN(C2CCC(=O)NC2=O)C3=O)cn1` (stereo not drawn) [Compound 123, N-(2-(2,6-dioxopiperidin-3-yl)-1-oxoisoindolin-5-yl)-6-methylnicotinamide], the IC50 on CRBN/DDB1 lay within 100 to 1000 nM. On CK1α, this compound had a DC50 of 0.1 to 1 µM.
For `O=C1CCC(N2Cc3cc(NC(=O)c4cccc5c4CCC5)ccc3C2=O)C(=O)N1` (stereo not drawn) [Compound 129, N-(2-(2,6-dioxopiperidin-3-yl)-1-oxoisoindolin-5-yl)-2,3-dihydro-1H-indene-4-carboxamide] the same measures were 100 to 1000 nM and less than 0.1 µM.
With `O=C1CCC(N2Cc3cc(NC(=O)c4cccc5c4CCCC5)ccc3C2=O)C(=O)N1` (stereo not drawn) [Compound 135, N-(2-(2,6-dioxopiperidin-3-yl)-1-oxoisoindolin-5-yl)-5,6,7,8-tetrahydronaphthalene-1-carboxamide], the IC50 at CRBN/DDB1 lay in the range of 100 to 1000 nM.
For `O=C1CCC(N2Cc3cc(NC(=O)c4ncco4)ccc3C2=O)C(=O)N1` (stereo not drawn) [Compound 120, N-(2-(2,6-dioxopiperidin-3-yl)-1-oxoisoindolin-5-yl)oxazole-2-carboxamide], the IC50 on CRBN/DDB1 lay in the range of 100 to 1000 nM. The DC50 at CK1α was less than 0.1 µM.
For the compound `Cn1ccc(C(=O)Nc2ccc3c(c2)CN(C2CCC(=O)NC2=O)C3=O)n1` (stereo not drawn) [Compound 106, N-(2-(2,6-dioxopiperidin-3-yl)-1-oxoisoindolin-5-yl)-1-methyl-1H-pyrazole-3-carboxamide], the IC50 at CRBN/DDB1 was 100 to 1000 nM. Moreover, the DC50 at CK1α was in the range of 0.1 to 1 µM.
In the same order, the values of `O=C1CCC(N2Cc3cc(NC(=O)c4ccccc4F)ccc3C2=O)C(=O)N1` (stereo not drawn) [Compound 143, N-(2-(2,6-dioxopiperidin-3-yl)-1-oxoisoindolin-5-yl)-2-fluorobenzamide] are 100 to 1000 nM and 0.1 to 1 µM.
For `O=C1CCC(N2Cc3cc(NC(=O)c4ccccc4Cl)ccc3C2=O)C(=O)N1` (stereo not drawn) [Compound 148] the same measures were 100 to 1000 nM and less than 0.1 µM.
For `O=C1CCC(N2Cc3cc(NC(=O)c4ncccn4)ccc3C2=O)C(=O)N1` (stereo not drawn) [Compound 104, N-(2-(2,6-dioxopiperidin-3-yl)-1-oxoisoindolin-5-yl)pyrimidine-2-carboxamide] the same measures were 100 to 1000 nM and 0.1 to 1 µM.
Consider `N#Cc1ccc(C(=O)Nc2ccc3c(c2)CN(C2CCC(=O)NC2=O)C3=O)cc1` (stereo not drawn) [Compound 130, 4-cyano-N-(2-(2,6-dioxopiperidin-3-yl)-1-oxoisoindolin-5-yl)benzamide], for which the IC50 at CRBN/DDB1 lay in the range of 100 to 1000 nM. This compound also returned a DC50 on CK1α of 0.1 to 1 µM.
For `O=C1CCC(N2Cc3cc(NC(=O)c4ccccc4C(F)(F)F)ccc3C2=O)C(=O)N1` (stereo not drawn) [Compound 137, N-(2-(2,6-dioxopiperidin-3-yl)-1-oxoisoindolin-5-yl)-2-(trifluoromethyl)benzamide] the same measures were 100 to 1000 nM and less than 0.1 µM.
For `Cc1ccc(C(=O)Nc2ccc3c(c2)CN(C2CCC(=O)NC2=O)C3=O)cc1` (stereo not drawn) [Compound 127, N-(2-(2,6-dioxopiperidin-3-yl)-1-oxoisoindolin-5-yl)-4-methylbenzamide] the same measures were 100 to 1000 nM and less than 0.1 µM.
In the same order, the values of `O=C1CCC(N2Cc3cc(NC(=O)c4ccncn4)ccc3C2=O)C(=O)N1` (stereo not drawn) [Compound 105, N-(2-(2,6-dioxopiperidin-3-yl)-1-oxoisoindolin-5-yl)pyrimidine-4-carboxamide] are more than 1000 nM and more than 1 µM.
For the compound `N#Cc1ccccc1C(=O)Nc1ccc2c(c1)CN(C1CCC(=O)NC1=O)C2=O` (stereo not drawn) [Compound 118, 2-cyano-N-(2-(2,6-dioxopiperidin-3-yl)-1-oxoisoindolin-5-yl)benzamide], the IC50 at CRBN/DDB1 lay within 100 to 1000 nM. For the same compound, on CK1α, the DC50 was more than 1 µM.
The compound `O=C1CCC(N2Cc3cc(NC(=O)c4cccc(Cl)c4)ccc3C2=O)C(=O)N1` (stereo not drawn) [Compound 145] gave a DC50 on CK1α of less than 0.1 µM.
Same read-out and setting: the result for `O=C1CCC(N2Cc3cc(NC(=O)C4(C(F)(F)F)CCN(c5ccccn5)C4)ccc3C2=O)C(=O)N1` (stereo not drawn) [Compound 150] reads 0.1 to 1 µM.
For the compound `COc1ccc(CC(=O)Nc2ccc3c(c2)CN(C2CCC(=O)NC2=O)C3=O)cc1` (stereo not drawn) [Compound 149, N-(2-(2,6-dioxopiperidin-3-yl)-1-oxoisoindolin-5-yl)-2-(4-methoxyphenyl)acetamide], the DC50 on CK1α lay within 0.1 to 1 µM.
The same measure, in the same setting: the result for `O=C1CCC(N2Cc3cc(NC(=O)c4ccccc4CC(F)(F)F)ccc3C2=O)C(=O)N1` (stereo not drawn) [Compound 113, N-(2-(2,6-dioxopiperidin-3-yl)-1-oxoisoindolin-5-yl)-2-(2,2,2-trifluoroethyl)benzamide] reads 0.1 to 1 µM.
On the same count and under the same terms, under `Cc1cc(C(=O)Nc2ccc3c(c2)CN(C2CCC(=O)NC2=O)C3=O)ccn1` (stereo not drawn) [Compound 138, N-(2-(2,6-dioxopiperidin-3-yl)-1-oxoisoindolin-5-yl)-2-methylisonicotinamide] stands more than 1 µM.
Consider `O=C1CCC(N2Cc3cc(NC(=O)Cc4ccccc4)ccc3C2=O)C(=O)N1` (stereo not drawn) [Compound 151], for which the DC50 at CK1α lay in the range of 0.1 to 1 µM.
Same read-out and setting: under `Cc1ccc(CC(=O)Nc2ccc3c(c2)CN(C2CCC(=O)NC2=O)C3=O)cn1` (stereo not drawn) [Compound 152] stands more than 1 µM; under `CN(C(=O)c1ccc(Cl)cc1)c1ccc2c(c1)CN(C1CCC(=O)NC1=O)C2=O` (stereo not drawn) [Compound 153], more than 1 µM.
